Consider two compounds from US5776892A, “Anti-inflammatory peptides” (Curative Health Services, Inc., priority 1994, dated 1998).

No end group written: not given here.

In this experiment the test system is arachidonic acid induced inflammation in mouse ear. As to the kind of experiment: Mouse ear model, arachidonic acid (AA) induced inflammation, ear thickness. The class given is in vivo. How it is done:
The anti-inflammatory properties of CT-112 (SEQ. ID NO: 1) were assessed using a standardized assay for anti-inflammatory activity, i.e., the mouse ear model in which arachidonic acid (AA) is used to induce an inflammatory reaction (Young et al., 1984, J. Invest. Dermatol. 82:367-371; Doherty, et al., 1988, J. Invest. Dermatol. 91:298-302).
Female mice (C57BL/6UAF, Charles River Breeding Laboratories, approximately 15-18 g) were obtained and acclimated for 2 weeks prior to use. The animals were approximately 14 weeks old at the start of the study.
To prepare minipumps for implantation, CT-112 (SEQ. ID NO: 1) was dissolved in PBS. The material was loaded into Alzet minipumps set to deliver 0.05 (5 animals), 0.1 (10 animals), 1 (10 animals), or 2.5 (5 animals) mg of CT-112 (SEQ. ID NO: 1) per animal per day. Minipumps for implantation into control animals contained only PBS. As a positive control, one set of 10 mice received 100 mg/kg of phenidone, a potent 5-lipoxygenase inhibitor which acts as an anti-inflammatory agent, 15 min prior to challenge with AA.
For subcutaneous implantation of minipumps, animals were anesthetized with Ketamine/Xylazine. The Ketamine (Aveco Lot #440140) was injected at 80 mg/kg and the Xylazine (Rugby Laboratories Lot #26040-B) at 16 mg/kg and the Alzet pumps were implanted subcutaneously in the dorsothoracic area. Animals were allowed to recover and then housed and given food and water ad libitum for 5 days.
On the sixth day following pump implantation, 0.01 ml of AA was applied to the inner and outer surfaces of the right ear by means of an automatic microliter pipette. One hr following AA application, the mice were sacrificed and ear thickness was measured with a Mitutoyo No. 7300 Gauge Caliper. The left ears were also measured as an internal control.
Mice were implanted with Alzet mini-pumps set to deliver 60 mg/kg/day for either 7, 3, or 1 days. A separate group of 5 mice received 3 intraperitoneal injections of CT-112 (60 mg/kg/injection) at 24, 1 and 0.25 hr prior to AA challenge. CT-112 (SEQ. ID NO: 1) was prepared for injection by dissolving the compound in Dulbecco's PBS to give a final CT-112 (SEQ. ID NO: 1) concentration of 5 mg/ml. The control mice were implanted with Alzet minipumps that delivered PBS for 7 days. The AA challenge was the same as described supra in Example 7.
Administration of CT-112 (SEQ. ID NO: 1) (60 mg/kg/injection) via multiple intraperitoneal injections was performed at the following times prior to AA challenge:
In addition, the effect of a single administration of CT-112 (SEQ. ID NO: 1) (60 mg/kg) by intraperitoneal injection was performed at either 1 or 3 hr prior to AA challenge. Control mice had Alzet minipumps implanted to deliver PBS for 7 days prior to AA challenge. The AA challenge was the same as described supra in Example 7. The results of the multiple dosing regimens and the 1 hr and 3 hr single dosing regimens were compared to the anti-inflammatory activity of CT-112 (SEQ. ID NO: 1) delivered via Alzet minipump set to deliver 60 mg/kg/day for 7 days using 5 animals per treatment.
In a separate experiment, the effect of multiple intraperitoneal injections of CT-112 (SEQ. ID NO: 1) at either 6, 3, 1 and 0.25 hr, or 16, 3, 1 and 0.25 hr prior to AA challenge was assessed. The results of both multi-dosing regimens were compared to both phenidone (100 mg/kg administered 15 min prior to AA challenge) and CT-112 (SEQ. ID NO: 1) administered via Alzet mini-pump (60 mg/kg/day for 7 days). For this latter study, the number of animals receiving the single injection of CT-112 (SEQ. ID NO: 1) was increased from 5 to 10.
Administration to mice of CT-112 (SEQ. ID NO: 1) (60 mg/kg/injection) via multiple subcutaneous injections prior to AA challenge was performed at:
In addition, other mice received only a single subcutaneous injection of CT-112 (SEQ. ID NO: 1) (60 mg/kg) at either 3 or 1 hr prior to AA challenge. […]

For the compound `O=C1CCN(c2ccccc2)N1` [Phenidone, reference compound], the “% Reduction of Ear Swelling” value (Table I, phenidone 100 mg/kg, 15 min prior to AA) is on record as 84.1%. Take TTSHVKPQ [CT-135, ID; NO; 20]: the “% Inhibition” value (Table XII, 60 mg/kg/day via Alzet pump for 24 hr) is reported as 73%. In addition, the “Thickness Difference (Left-Right)” value (Table XIII, 60 mg/kg/day via Alzet pump for 24 hr) turned out to be 0.00178 ± 0.00073 in.
